Test system: genes predictive for the anti-inflammatory macrolide effect
Test: Genes statistically predictive of Clari response: differentially expressed with Clari but not the inactive macrolides MAA or Josa (Appendix E)
Assay type: cell-based
Excerpt: In the case of the above-mentioned (i) related to arachidonic acid biosynthesis, specifically, methods of the embodiment involve assaying whether a test macrolide alters biosynthesis of arachidonic acid, alters the expression or activities of enzymes involved in the biosynthesis or activation of arachidonic acid (e.g., arachidonic acid CoA synthetase, delta-6 desaturase, fatty acid elongase, and delta-5 desaturase, AA-related genes in Tables 2 and 3), or alters the expression of genes identified as predictive for the anti-inflammatory macrolide effect (Appendix E). Assays in which arachidonic acid or gene expression or enzymatic activity is detected can be carried out after contacting a cell with a test macrolide. Any cell line that secretes prostaglandin or produces arachidonic acid can be used. Epithelial and macrophages lines (e.g., A549 or THP-1) are suitable for this purpose; other cell lines can be identified by carrying out assays such as those described in the specific Examples, below. Alternatively, screening assays can be carried out after adding a test macrolide to an in vitro cell system (e.g., a cellular extract or liver microsome preparation) or an in vitro enzyme assay system.

CC[C@H]1OC(=O)[C@H](C)[C@@H](O[C@H]2C[C@@](C)(OC)[C@@H](O)[C@H](C)O2)[C@H](C)[C@@H](O[C@@H]2O[C@H](C)C[C@H](N(C)C)[C@H]2O)[C@](C)(OC)C[C@@H](C)C(=O)[C@H](C)[C@@H](O)[C@]1(C)O [clarithromycin]
group mean, gene DDOST (SpotID 49757, MAA and Josa vs. Clari): 1.08
group mean, gene BCL2L2 (SpotID 49761, MAA and Josa vs. Clari): 1.01
group mean, gene AD022 (SpotID 49767, MAA and Josa vs. Clari): 1.12
mean group, AD022 (SpotID 49767, pooled group mean): 1.10
group mean, gene P4HB (SpotID 49781, MAA and Josa vs. Clari): 1.10
group mean, gene CYC1 (SpotID 49787, MAA and Josa vs. Clari): 0.90
mean group, CYC1 (SpotID 49787, pooled group mean): 0.94
group mean, gene BCL2L2 (SpotID 49794, MAA and Josa vs. Clari): 1.01
mean group, AD022 (SpotID 49800, pooled group mean): 1.09
group mean, gene CDKN2C (SpotID 49815, MAA and Josa vs. Clari): 0.90
group mean, gene CYC1 (SpotID 49820, MAA and Josa vs. Clari): 0.90
group mean, gene LAMP2 (SpotID 49882, MAA and Josa vs. Clari): 1.17
group mean, gene ATP2B4 (SpotID 49915, MAA and Josa vs. Clari): 1.03
mean group, ATP2B4 (SpotID 49915, pooled group mean): 1.06
group mean, gene DHCR24 (SpotID 49922, MAA and Josa vs. Clari): 1.27
group mean, gene KIAA0169 (SpotID 49930, MAA and Josa vs. Clari): 0.95
mean group, RFC1 (SpotID 49947, pooled group mean): 0.93
group mean, gene CCNE2 (SpotID 49967, MAA and Josa vs. Clari): 0.82
group mean, gene BMP6 (SpotID 49981, MAA and Josa vs. Clari): 1.10
group mean, gene VTN (SpotID 49989, MAA and Josa vs. Clari): 0.90
group mean, gene SRC (SpotID 49990, MAA and Josa vs. Clari): 1.17
group mean, gene NFYC (SpotID 50011, MAA and Josa vs. Clari): 0.95
mean group, HIF1A (SpotID 50022, pooled group mean): 0.93
group mean, gene GNB2L1 (SpotID 50049, MAA and Josa vs. Clari): 1.10
mean group, NDUFA2 (SpotID 50050, pooled group mean): 1.02
group mean, gene MBTPS1 (SpotID 50067, MAA and Josa vs. Clari): 1.07
group mean, gene SCOP (SpotID 50079, MAA and Josa vs. Clari): 1.05
mean group, SCOP (SpotID 50079, pooled group mean): 1.04
group mean, gene IDI1 (SpotID 50084, MAA and Josa vs. Clari): 1.32
group mean, SpotID 50085 (gene symbol not given) (SpotID 50085, MAA and Josa vs. Clari): 1.00
group mean, gene CNOT3 (SpotID 50099, MAA and Josa vs. Clari): 0.84
mean group, CNOT3 (SpotID 50099, pooled group mean): 0.86
group mean, gene IRF5 (SpotID 50103, MAA and Josa vs. Clari): 1.01
group mean, gene RRBP1 (SpotID 50135, MAA and Josa vs. Clari): 1.11
group mean, SpotID 50216 (gene symbol not given) (SpotID 50216, MAA and Josa vs. Clari): 1.05
group mean, gene FLJ13868 (SpotID 50222, MAA and Josa vs. Clari): 1.06
group mean, gene HK2 (SpotID 50224, MAA and Josa vs. Clari): 1.14
mean group, IL10RB (SpotID 50267, pooled group mean): 1.08
group mean, gene UQCR (SpotID 50284, MAA and Josa vs. Clari): 1.00
group mean, gene TM7SF2 (SpotID 50294, MAA and Josa vs. Clari): 1.29
group mean, gene CDR2 (SpotID 50302, MAA and Josa vs. Clari): 1.08
group mean, gene MAX (SpotID 50307, MAA and Josa vs. Clari): 1.10
group mean, gene BMP6 (SpotID 50319, MAA and Josa vs. Clari): 1.15
group mean, gene DAD1 (SpotID 50332, MAA and Josa vs. Clari): 1.20
group mean, gene FGFR2 (SpotID 50337, MAA and Josa vs. Clari): 1.08
group mean, gene IKKE (SpotID 50342, MAA and Josa vs. Clari): 1.11
mean group, IKKE (SpotID 50342, pooled group mean): 1.08
group mean, gene LOC51295 (SpotID 50349, MAA and Josa vs. Clari): 0.78
mean group, LOC51295 (SpotID 50349, pooled group mean): 0.84
mean group, CFL1 (SpotID 50351, pooled group mean): 1.00
group mean, gene TFAM (SpotID 50386, MAA and Josa vs. Clari): 0.91
group mean, gene DGCR6L (SpotID 50399, MAA and Josa vs. Clari): 1.17
group mean, gene CHERP (SpotID 50405, MAA and Josa vs. Clari): 0.87
group mean, gene AGPAT1 (SpotID 50412, MAA and Josa vs. Clari): 1.12
mean group, GOCAP1 (SpotID 50421, pooled group mean): 1.10
group mean, gene SIGIRR (SpotID 50452, MAA and Josa vs. Clari): 1.10
group mean, gene MMP15 (SpotID 50464, MAA and Josa vs. Clari): 1.10
group mean, gene CEBPA (SpotID 50474, MAA and Josa vs. Clari): 1.29
mean group, MGP (SpotID 50511, pooled group mean): 0.98
group mean, gene ARHC (SpotID 50513, MAA and Josa vs. Clari): 1.02
mean group, ARHC (SpotID 50513, pooled group mean): 1.00
group mean, gene PRKCBP1 (SpotID 50532, MAA and Josa vs. Clari): 0.94
group mean, gene PTPRT (SpotID 50550, MAA and Josa vs. Clari): 1.08
mean group, BN51T (SpotID 50584, pooled group mean): 1.07
mean group, CKS2 (SpotID 50590, pooled group mean): 0.89
mean group, SpotID 50591 (SpotID 50591 (gene symbol not given), pooled group mean): 1.13
group mean, SpotID 50591 (gene symbol not given) (SpotID 50591, MAA and Josa vs. Clari): 1.17
mean group, SRP19 (SpotID 50601, pooled group mean): 1.06
group mean, gene PDIR (SpotID 50639, MAA and Josa vs. Clari): 1.10
group mean, gene PROS1 (SpotID 50643, MAA and Josa vs. Clari): 1.11
mean group, BET1 (SpotID 50645, pooled group mean): 1.01
group mean, gene COPB2 (SpotID 50654, MAA and Josa vs. Clari): 1.12
group mean, gene MAX (SpotID 50659, MAA and Josa vs. Clari): 1.10
group mean, gene GNB5 (SpotID 50689, MAA and Josa vs. Clari): 1.19
group mean, gene PRKDC (SpotID 50736, MAA and Josa vs. Clari): 0.90
mean group, PRKDC (SpotID 50736, pooled group mean): 0.92
group mean, gene AD022 (SpotID 50738, MAA and Josa vs. Clari): 1.14
mean group, AD022 (SpotID 50738, pooled group mean): 1.10
